Tests used:
AsPC-1 cells = assay: AsPC-1 cell proliferation assay (CellTiter Glo); format: cell-based; conditions: Homo sapiens, ASPC1, 144 h, 6 days
Procedure, shortened: (§1)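 Half-maximal degradation (DC50) and inhibition (IC50) concentrations are fitted from dose-response curves spanning […] to 1.5 nM final. KRAS G12D loss is measured by fluorescent antibody staining with β-actin reference after 24 h; growth is measured by ATP luminescence after a 6-day exposure.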

KRAS (G12D) = target: T1, KRAS (G12D) (Homo sapiens, UniProt P01116, G12D); assay: KRAS (G12D) cellular degradation assay in AsPC-1 cells; format: cell-based; conditions: 24 hours, antibody fluorescence (Odyssey CLX), DC50 half-maximal degradation concentration
T1 construct: in-cell western with KRAS G12D antibody after 24 h
T1 sequence (P01116 1-188 isoform P01116-2 G12D): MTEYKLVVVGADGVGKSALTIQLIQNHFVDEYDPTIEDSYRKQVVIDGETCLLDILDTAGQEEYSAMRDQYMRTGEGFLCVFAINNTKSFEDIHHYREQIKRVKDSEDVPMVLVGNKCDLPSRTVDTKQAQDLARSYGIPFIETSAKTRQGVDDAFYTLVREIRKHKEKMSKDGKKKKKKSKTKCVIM
Procedure, shortened: as §1

SMILES | IC50 (AsPC-1 cells) [nM] | DC50 (KRAS (G12D)) [nM]
CCn1nccc1-c1ccc([C@@H](NC(=O)[C@@H]2C[C@@H](O)CN2C(=O)[C@H](C(C)C)n2cc(-c3ccc(COc4c(-c5c(C)c(F)cc6[nH]ncc56)c(C5CC5)cc5c(N6C[C@@H]7C[C@H]6CN7)nc(O[C@H]6CC[C@H](OC)CC6)nc45)cc3)nn2)[C@H](C)O)cc1 [Example 121, (2S,4R)-1-((2S)-2-(4-(4-(((4-((1S,4S)-2,5-diazabicyclo[2.2.1]heptan-2-yl)-6-cyclopropyl-7-(6-fluoro-5-methyl-1H-indazol-4-yl)-2-(((1r,4S)-4-methoxycyclohexyl)oxy)quinazolin-8-yl)oxy)methyl)phenyl)-1H-1,2,3-triazol-1-yl)-3-methylbutanoyl)-N-((1R,2S)-1-(4-(1-ethyl-1H-pyrazol-5-yl)phenyl)-2-hydroxypropyl)-4-hydroxypyrrolidine-2-carboxamide] | < 10 | < 10
CO[C@@H](C)COc1nc(N2C[C@@H]3C[C@H]2CN3)c2cc(C3CC3)c(-c3c(C)c(F)cc4[nH]ncc34)c(OCc3ccc(-c4cn([C@H](C(=O)N5C[C@H](O)C[C@H]5C(=O)N[C@H](C#Cc5cccc(Cl)c5F)CO)C(C)C)nn4)cc3)c2n1 [Example 78, (2S,4R)-1-((2S)-2-(4-(4-(((4-((1S,4S)-2,5-diazabicyclo[2.2.1]heptan-2-yl)-6-cyclopropyl-7-(6-fluoro-5-methyl-1H-indazol-4-yl)-2-((S)-2-methoxypropoxy)quinazolin-8-yl)oxy)methyl)phenyl)-1H-1,2,3-triazol-1-yl)-3-methylbutanoyl)-N—((R)-4-(3-chloro-2-fluorophenyl)-1-hydroxybut-3-yn-2-yl)-4-hydroxypyrrolidine-2-carboxamide] | < 10 | 10 to 100
CO[C@@H](C)COc1nc(N2C[C@@H]3C[C@H]2CN3)c2cc(C3CC3)c(-c3c(C)c(F)cc4[nH]ncc34)c(OCc3ccc(-c4cn([C@H](C(=O)N5C[C@H](O)C[C@H]5C(=O)N[C@H](C#Cc5nn(C)c6ccccc56)CO)C(C)C)nn4)cc3)c2n1 [Example 71, (2S,4R)-1-((2S)-2-(4-(4-(((4-((1S,4S)-2,5-diazabicyclo[2.2.1]heptan-2-yl)-6-cyclopropyl-7-(6-fluoro-5-methyl-1H-indazol-4-yl)-2-((S)-2-methoxypropoxy)quinazolin-8-yl)oxy)methyl)phenyl)-1H-1,2,3-triazol-1-yl)-3-methylbutanoyl)-4-hydroxy-N—((R)-1-hydroxy-4-(1-methyl-1H-indazol-3-yl)but-3-yn-2-yl)pyrrolidine-2-carboxamide] | < 10 | < 10
CCn1nccc1-c1ccc([C@H](CO)NC(=O)[C@@H]2C[C@@H](O)CN2C(=O)[C@H](C(C)C)n2cc(-c3ccc(COc4c(-c5c(C)c(F)cc6[nH]ncc56)c(C5CC5)cc5c(N6C[C@@H]7C[C@H]6CN7)nc(OC(COC)C(F)(F)F)nc45)cc3)nn2)cc1 (stereo partly drawn) [Example 58, (2S,4R)-1-((2S)-2-(4-(4-(((4-((1S,4S)-2,5-diazabicyclo[2.2.1]heptan-2-yl)-6-cyclopropyl-7-(6-fluoro-5-methyl-1H-indazol-4-yl)-2-((1,1,1-trifluoro-3-methoxypropan-2-yl)oxy)quinazolin-8-yl)oxy)methyl)phenyl)-1H-1,2,3-triazol-1-yl)-3-methylbutanoyl)-N—((R)-1-(4-(1-ethyl-1H-pyrazol-5-yl)phenyl)-2-hydroxyethyl)-4-hydroxypyrrolidine-2-carboxamide] | < 10 | < 10
Cc1ncsc1-c1ccc([C@H](CO)NC(=O)[C@@H]2C[C@@H](O)CN2C(=O)[C@H](C(C)C)n2cc(-c3ccc(COc4c(-c5c(C)c(F)cc6[nH]ncc56)c(C5CC5)cc5c(N6C[C@@H]7C[C@H]6CN7)nc(OC6CC7COCC7C6)nc45)cc3)nn2)cc1 (stereo partly drawn) [Example 93, (2S,4R)-1-((2S)-2-(4-(4-(((4-((1S,4S)-2,5-diazabicyclo[2.2.1]heptan-2-yl)-6-cyclopropyl-7-(6-fluoro-5-methyl-1H-indazol-4-yl)-2-((hexahydro-1H-cyclopenta[c]furan-5-yl)oxy)quinazolin-8-yl)oxy)methyl)phenyl)-1H-1,2,3-triazol-1-yl)-3-methylbutanoyl)-4-hydroxy-N—((R)-2-hydroxy-1-(4-(4-methylthiazol-5-yl)phenyl)ethyl)pyrrolidine-2-carboxamide] | < 10 | < 10
CCn1nccc1-c1ccc([C@H](CO)NC(=O)[C@@H]2C[C@@H](O)CN2C(=O)[C@H](C(C)C)n2cc(-c3ccc(COc4c(-c5c(C)c(F)cc6[nH]ncc56)c(C5CC5)cc5c(N6C[C@@H]7C[C@H]6CN7)nc(OC6CCC(OC)C6)nc45)cc3)nn2)cc1 (stereo partly drawn) [Example 86, (2S,4R)-1-((2S)-2-(4-(4-(((4-((1S,4S)-2,5-diazabicyclo[2.2.1]heptan-2-yl)-6-cyclopropyl-7-(6-fluoro-5-methyl-1H-indazol-4-yl)-2-((3-methoxycyclopentyl)oxy)quinazolin-8-yl)oxy)methyl)phenyl)-1H-1,2,3-triazol-1-yl)-3-methylbutanoyl)-N—((R)-1-(4-(1-ethyl-1H-pyrazol-5-yl)phenyl)-2-hydroxyethyl)-4-hydroxypyrrolidine-2-carboxamide] | < 10 | < 10
CO[C@@H](C)COc1nc(N2C[C@@H]3C[C@H]2CN3)c2cc(C3CC3)c(-c3c(C)c(F)cc4[nH]ncc34)c(OCc3ccc(-c4cn([C@H](C(=O)N5C[C@H](O)C[C@H]5C(=O)N[C@H](C#Cc5ccc6nc(N)sc6c5)CO)C(C)C)nn4)cc3)c2n1 [Example 111, (2S,4R)-1-((2S)-2-(4-(4-(((4-((1S,4S)-2,5-diazabicyclo[2.2.1]heptan-2-yl)-6-cyclopropyl-7-(6-fluoro-5-methyl-1H-indazol-4-yl)-2-((S)-2-methoxypropoxy)quinazolin-8-yl)oxy)methyl)phenyl)-1H-1,2,3-triazol-1-yl)-3-methylbutanoyl)-N—((R)-4-(2-aminobenzo[d]thiazol-6-yl)-1-hydroxybut-3-yn-2-yl)-4-hydroxypyrrolidine-2-carboxamide] | < 10 | < 10
CCn1nccc1-c1ccc([C@H](CO)NC(=O)[C@@H]2C[C@@H](O)CN2C(=O)[C@H](C(C)C)n2cc(-c3ccc(COc4c(-c5c(C)c(F)cc6[nH]ncc56)c(C5CC5)cc5c(N6C[C@@H]7C[C@H]6CN7)nc(OCC(OC)C(F)(F)F)nc45)cc3)nn2)cc1 (stereo partly drawn) [Example 48, (2S,4R)-1-((2S)-2-(4-(4-(((4-((1S,4S)-2,5-diazabicyclo[2.2.1]heptan-2-yl)-6-cyclopropyl-7-(6-fluoro-5-methyl-1H-indazol-4-yl)-2-(3,3,3-trifluoro-2-methoxypropoxy)quinazolin-8-yl)oxy)methyl)phenyl)-1H-1,2,3-triazol-1-yl)-3-methylbutanoyl)-N—((R)-1-(4-(1-ethyl-1H-pyrazol-5-yl)phenyl)-2-hydroxyethyl)-4-hydroxypyrrolidine-2-carboxamide] | < 10 | < 10
